Data published in patent US7531622B2, “Synthesis and characterization of novel systems for guidance and vectorization of molecules of therapeutic interest towards target cells” (Centre National de la Recherche Scientifique- CNRS, priority 2002, dated 2009).
Non-standard residues stand in square brackets, D forms with d.

Test system: HEK293 cells that overexpress integrin β3
Assay: Internalization of fluorescein-labeled peptides, confocal microscopy with early endosome immunolabeling
Format: cell-based
Settings: 37° C., 15 to 30 minutes
Method: 3) Active internalization of drugs or vectorized products: The same cells, placed in contact at 37° C. or 4° C. for 15 to 30 minutes with peptides previously labeled with fluorescein, are observed by confocal microscopy after immunolabeling of the early endosome vesicles (anti-Early Endosome 1A labeling, visualized in red).
If incubation of the peptides is performed at 4° C., only the extracellular label is observed with the peptide obtained according to the invention, confirming that internalization takes place by way of an active process.

Substance: cyclo(RGDfK) (cyclo(RGD[dF]K)) [cRGD]
- visualization / detection of the peptide on and in cells by fluorescence: not detectable by immunofluorescence
- internalization by endocytosis (co-localization with EE1A label) (fluorescein-labeled peptide): not triggered
